According to publication PMC12376128, “In vitro and In Vivo Drug Metabolism Analysis of BPI-460372 - A Covalent TEAD1/3/4 Inhibitor” (Current Drug Metabolism, 2025):

Key:
[1] = Metabolite identification in rat plasma, urine, feces and bile; format: in vivo, SD rats; settings: for Relative abundance of MS peak areas, Rat Bile 0-48 h / Relative abundance of MS peak areas, Rat Feces 0-48 h / Relative abundance of MS peak areas, Rat Urine 0-48 h: oral 6 mg/kg BPI-460372, average of male and female pooled samples; for Relative abundance of MS peak areas, Rat Plasma 0-24 h: oral 12 mg/kg BPI-460372, average of male and female pooled samples
Procedure: (§1) The plasma samples were acquired from SD rats (n=6, 3 female and 3 male) and beagle dogs (n=6, 3 female and 3 male) after administration of 12 mg/kg and 8 mg/kg of BPI-460372, respectively. The rat urine, feces, and bile samples were acquired in SD rats after administration of 6 mg/kg of BPI-460372.
(§2) Equal volume from each rat was pooled together to get 1 male and 1 female 0-24 h plasma samples. An equal percentage by volume of individual urine sample (0-8, 8-24, and 24-48 h) from 3 female and 3 male rats was pooled by time interval across rats, respectively, resulting in two pooled urine samples (1 male and 1 female). An equal percentage by weight of individual feces samples (0-8, 8-24, and 24-48 h) was pooled by time interval across female and male rats, resulting in two pooled fecal samples. An equal percentage by volume of individual bile samples (0-4, 4-8, 8-24, and 24-48 h) was pooled by time interval across female and male rats, resulting in two pooled bile samples. […] Equal volumes from 3 female and 3 male rats were pooled together to get two 0-48 h plasma samples. For blank samples of plasma, urine, and bile, equal volume was pooled across subjects. For a blank sample of feces, equal weight was pooled across rats.
(§3) The pooled plasma, feces, and bile samples were extracted by adding 3-fold volume of acetonitrile, and the mixture was vortexed (1 min) and sonicated (1 min) before centrifugation (7220 g, 5 min). The pooled urine samples were centrifuged (7220 g, 5 min). Then the supernatant was transferred into a clean tube and evaporated to dryness under the nitrogen stream. The residues were redissolved with an appropriate volume of acetonitrile/water (20: 80, v: v). After centrifugation, the redissolved solution was transferred into an HPLC vial for UHPLC-Orbitrap-HRMS (15000 g, 10 min, 4°C).

[2] = test system: mouse hepatocytes; assay: Metabolic stability in hepatocytes
Procedure: (§4) After mixing, 20 μL of cell suspension was serially transferred into 200 μL of cold acetonitrile containing IS at the time points of 0, 5, 15, 30, 60, and 120 min, respectively.
(§5) The metabolic stability was assessed by measuring the depletion of substrate. The half-life (t1/2), intrinsic clearance (CLint, in virto, µL·min^-1·million cells^-1), whole liver intrinsic clearance (CLint, in vivo, mL·min-1·kg^-1), and in vivo hepatic clearance (CLH, mL·min-1·kg^-1) were calculated following a reported method. In the calculation of CLH, the fraction drug unbound (Fub) was set as 1. The hepatic blood flow, liver weight, and hepatocellularity of five species were used for the calculation of CLint, in vivo [13, 14]. The hepatic extraction ratio (Eh) means the ratio of CLH to hepatic blood flow.

[3] = test system: rat hepatocytes; assay: Metabolic stability in hepatocytes
Procedure: as §4, §5

[4] = test system: monkey hepatocytes; assay: Metabolic stability in hepatocytes
Procedure: as §4, §5

[5] = test system: dog hepatocytes; assay: Metabolic stability in hepatocytes
Procedure: as §4, §5

[6] = test system: human hepatocytes; assay: Metabolic stability in hepatocytes
Procedure: as §4, §5

[7] = Metabolic stability in hepatocytes; settings: hepatocytes
Procedure: as §4, §5

[8] = test system: mouse hepatocytes; assay: Metabolism and metabolite formation in hepatocytes; format: in vitro ADME, ICR mouse; settings: ICR mouse hepatocytes, 10 µM BPI-460372, 4 h incubation
Text: (§6) All the samples were duplicates.

[9] = test system: cysteine S-conjugate β-lyase; assay: Effect of cysteine S-conjugate β-lyase inhibitor AOAA on the metabolism of BPI-460372 (rat urine); settings: for Area ratio in rat urine, mean (%CV): 20 mg/kg BPI-460372 + 100 mg/kg AOAA, once daily 21 days, urine 0-48 h on day 21; for Change of area ratio in rat urine on coadministration with AOAA: 20 mg/kg BPI-460372 with versus without 100 mg/kg AOAA
Procedure: To investigate the effect of cysteine S-conjugate β-lyase on the metabolism of BPI-460372, SD rats were treated with 20 mg/kg BPI-460372 alone (n=3, male) or 20 mg/kg BPI-460372 coadministration with 100 mg/kg cysteine S-conjugate β-lyase inhibitor AOAA (n=3, male), once daily for 21 consecutive days. On day 21, urine samples were collected at 0-8, 8-24 and 24-48 h. The same percentage of urine samples from each rat was taken at these three time intervals and mixed. The samples were analyzed by LC-MS/MS and then semi-quantified using the peak area ratio of analyte versus IS.

[10] = test system: rat hepatocytes; assay: Metabolism and metabolite formation in hepatocytes; format: in vitro ADME, SD rat; settings: SD rat hepatocytes, 10 µM BPI-460372, 4 h incubation
Text: as §6

[11] = test system: dog hepatocytes; assay: Metabolism and metabolite formation in hepatocytes; format: in vitro ADME, beagle dog; settings: beagle dog hepatocytes, 10 µM BPI-460372, 4 h incubation
Text: as §6

[12] = test system: human hepatocytes; assay: Metabolism and metabolite formation in hepatocytes; settings: human hepatocytes, 10 µM BPI-460372, 4 h incubation
[13] = Metabolite identification in dog plasma; format: in vivo, beagle dogs; settings: oral 8 mg/kg BPI-460372, average of male and female pooled samples
Procedure: as §1, §2, §3

[14] = test system: monkey hepatocytes; assay: Metabolism and metabolite formation in hepatocytes; format: in vitro ADME, cynomolgus monkey; settings: cynomolgus monkey hepatocytes, 10 µM BPI-460372, 4 h incubation
Text: as §6

Compound: CC(=O)NC(CSCCC(=O)N1CC(n2c(=O)n(-c3ccc(C(F)(F)F)cc3)c3cncnc32)C1)C(=O)O (centres unmarked) [M552]
- Relative abundance of MS peak areas, Rat Bile 0-48 h [1]: 0.56%
- Relative abundance of MS peak areas, Rat Feces 0-48 h [1]: 1.65%
- Relative abundance of MS peak areas, Rat Urine 0-48 h [1]: 6.73%
- Relative abundance of MS peak areas, Rat Plasma 0-24 h [1]: 0.015%

Compound: C[C@]12CC[C@H]3[C@@H](CCC4=CC(=O)CC[C@@]43C)[C@@H]1CC[C@@H]2O [Testosterone, testosterone]
- CLint, in virto ([2]; mouse hepatocytes, 1 µM): 46.6 µL·min^-1·Million cells^-1
- CLH ([2]; mouse hepatocytes, Fub set as 1): 77.4 mL/min/kg
- CLint, in vivo ([2]; mouse hepatocytes, scaled to whole liver): 554.1 mL/min/kg
- CLH ([3]; rat hepatocytes, Fub set as 1): 44.6 mL/min/kg
- CLint, in vivo ([3]; rat hepatocytes, scaled to whole liver): 233.5 mL/min/kg
- CLH ([4]; monkey hepatocytes, Fub set as 1): 36.6 mL/min/kg
- CLint, in vivo ([4]; monkey hepatocytes, scaled to whole liver): 217.3 mL/min/kg
- CLint, in virto ([5]; dog hepatocytes, 1 µM): 49.1 µL·min^-1·Million cells^-1
- CLH ([5]; dog hepatocytes, Fub set as 1): 28.3 mL/min/kg
- CLint, in vivo ([5]; dog hepatocytes, scaled to whole liver): 337.8 mL/min/kg
- CLint, in virto ([6]; human hepatocytes, 1 µM): 52.2 µL·min^-1·Million cells^-1
- CLH ([6]; human hepatocytes, Fub set as 1): 18.7 mL/min/kg
- CLint, in vivo ([6]; human hepatocytes, scaled to whole liver): 188.7 mL/min/kg
- half-life at 1 µM ([7]; ICR, mouse): 14.9 min
- half-life at 1 µM ([7]; SD, rat): 13.9 min
- half-life at 1 µM ([7]; beagle, dog): 14.1 min
- half-life at 1 µM ([7]; human): 13.3 min
- half-life at 1 µM ([7]; monkey): 11.5 min

Compound: CC(=O)NC(CSCC(F)C(=O)N1CC(n2c(=O)n(-c3ccc(C(F)(F)F)cc3)c3nccnc32)C1)C(=O)O (centres unmarked) [M570]
- Relative abundance of MS peak areas, Rat Bile 0-48 h [1]: 45.40%
- Relative abundance of MS peak areas, Rat Feces 0-48 h [1]: 3.96%
- Relative abundance of MS peak areas, Rat Urine 0-48 h [1]: 34.25%
- Relative abundance of MS peak areas, Rat Plasma 0-24 h [1]: 0.12%
- UV (314 nm) Peak Areas Relative Abundance [8]: 3.57%
- Area ratio in rat urine, mean (%CV) [9]: 0.08 (40)
- Change of area ratio in rat urine on coadministration with AOAA [9]: reduced
- UV (314 nm) Peak Areas Relative Abundance [10]: 2.6%
- UV (314 nm) Peak Areas Relative Abundance [11]: 2.44%
- UV (314 nm) Peak Areas Relative Abundance [12]: 1.48%

Compound: O=c1n(-c2ccc(C(F)(F)F)cc2)c2nccnc2n1C1CN(C(O)C(O)CO)C1 (centres unmarked) [M425]
- Relative abundance of MS peak areas, Dog Plasma 0-48 h [13]: 0.98%
- Relative abundance of MS peak areas, Rat Feces 0-48 h [1]: 2.79%
- Relative abundance of MS peak areas, Rat Urine 0-48 h [1]: 2.52%
- Relative abundance of MS peak areas, Rat Plasma 0-24 h [1]: 0.14%

Compound: CC(=O)N1CC(n2c(=O)n(-c3ccc(C(F)(F)F)cc3)c3nccnc32)C1 [M377]
- UV (314 nm) Peak Areas Relative Abundance [8]: 3.57%
- UV (314 nm) Peak Areas Relative Abundance [14]: 2.50%
- UV (314 nm) Peak Areas Relative Abundance [10]: 2.6%
- UV (314 nm) Peak Areas Relative Abundance [11]: 2.44%
- UV (314 nm) Peak Areas Relative Abundance [12]: 1.48%

Compound: O=c1ccc2ccc(O)cc2o1 [7-hydroxycoumarin]
- CLH ([2]; ICR, mouse, 1 µM): 58.5 mL/min/kg
- Eh ([2]; ICR, mouse, 1 µM): 0.650
- CLint, in vivo ([2]; hepatocytes): 167.1 mL/min/kg
- CLint, in virto ([2]; mouse, hepatocytes): 14.1 µL·min^-1·Million cells^-1
- CLH ([3]; SD, rat, 1 µM): 39.9 mL/min/kg
- Eh ([3]; SD, rat, 1 µM): 0.723
- CLint, in vivo ([3]; hepatocytes): 144.0 mL/min/kg
- CLint, in virto ([3]; rat, hepatocytes): 30.8 µL·min^-1·Million cells^-1
- CLH ([4]; cynomolgus monkey, 1 µM): 33.5 mL/min/kg
- Eh ([4]; cynomolgus monkey, 1 µM): 0.762
- CLint, in vivo ([4]; hepatocytes): 140.6 mL/min/kg
- CLint, in virto ([4]; monkey, hepatocytes): 39.0 µL·min^-1·Million cells^-1
- CLH ([5]; beagle, dog, 1 µM): 25.9 mL/min/kg
- Eh ([5]; beagle, dog, 1 µM): 0.838
- CLint, in virto ([5]; dog, hepatocytes): 23.3 µL·min^-1·Million cells^-1
- CLint, in vivo ([5]; hepatocytes): 160.0 mL/min/kg
- CLint, in vivo ([6]; hepatocytes): 122.6 mL/min/kg
- CLH ([6]; human, 1 µM): 17.7 mL/min/kg
- Eh ([6]; human, 1 µM): 0.856
- CLint, in virto ([6]; human, hepatocytes): 33.9 µL·min^-1·Million cells^-1
- half-life at 1 µM ([7]; ICR, mouse): 49.3 min
- half-life at 1 µM ([7]; SD, rat): 22.5 min
- half-life at 1 µM ([7]; beagle, dog): 29.8 min
- half-life at 1 µM ([7]; human): 20.4 min
- half-life at 1 µM ([7]; monkey): 17.8 min

Compound: CC(=O)NC(CSCC(O)C(=O)N1CC(n2c(=O)n(-c3ccc(C(F)(F)F)cc3)c3cncnc32)C1)C(=O)O (centres unmarked) [M568]
- Relative abundance of MS peak areas, Rat Bile 0-48 h [1]: 3.22%
- Relative abundance of MS peak areas, Rat Feces 0-48 h [1]: 0.45%
- Relative abundance of MS peak areas, Rat Urine 0-48 h [1]: 1.80%
- Area ratio in rat urine, mean (%CV) [9]: 0.06 (20)
- Change of area ratio in rat urine on coadministration with AOAA [9]: reduced
